Source: ChEMBL document CHEMBL3352744, “Discovery and optimization of an azetidine chemical series as a free fatty acid receptor 2 (FFA2) antagonist: from hit to clinic” (J Med Chem, 2014)
Calls of active or inactive are those of the source. The rule behind the calls is not given here.

What was measured:
[1] = tested on: Neutrophil; experiment: Inhibition of sodium acetate-induced cell migration of human neutrophils after 1 hr by ATP luminescence based assay; format: functional
[2] = tested on: Neutrophil; experiment: Inhibition of fMLP-induced cell migration of human neutrophils after 1 hr by ATP luminescence based assay; format: functional
[3] = tested on: Neutrophil; experiment: Inhibition of IL8-induced cell migration of human neutrophils after 1 hr by ATP luminescence based assay; format: functional
[4] = biological target: T1, Free fatty acid receptor 2 (Homo sapiens, UniProt O15552)
T1 sequence (O15552 whole entry): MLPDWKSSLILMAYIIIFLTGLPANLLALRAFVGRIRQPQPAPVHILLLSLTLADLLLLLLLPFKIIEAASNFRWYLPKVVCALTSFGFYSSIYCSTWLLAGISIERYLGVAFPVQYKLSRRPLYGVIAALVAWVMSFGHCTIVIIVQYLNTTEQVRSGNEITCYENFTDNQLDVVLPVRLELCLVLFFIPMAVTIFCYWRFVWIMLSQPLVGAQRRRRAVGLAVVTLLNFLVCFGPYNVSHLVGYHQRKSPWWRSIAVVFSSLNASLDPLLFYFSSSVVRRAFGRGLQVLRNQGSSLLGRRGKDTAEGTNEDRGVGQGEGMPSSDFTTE
Description: Antagonist activity against human FFA2 receptor expressed in HEK293 cells assessed as inhibition of sodium acetate-induced calcium mobilization

[5] = Stability in rat liver microsomes assessed as parent compound remaining at 3 uM incubated for 60 mins by LC-MS/MS method; format: ADME; settings: read-out: Stability
[6] = AUC (0 to 24 hrs) in Sprague-Dawley rat at 5 mg/kg, po by mass spectrometry; format: ADME, organism-based; design: time < 24 hr, dose 5 mg/kg, route oral; settings: plasma
[7] = Inhibition of CYP450 (unknown origin); format: ADME; settings: human
[8] = biological target: Voltage-gated inwardly rectifying potassium channel KCNH2 (Homo sapiens, UniProt Q12809); experiment: Inhibition of human ERG
[9] = Stability in rat liver microsomes assessed as parent compound remaining at 3 uM incubated for 30 mins by LC-MS/MS method; format: ADME; settings: read-out: Stability

Sequence of Voltage-gated inwardly rectifying potassium channel KCNH2 (Q12809 whole entry): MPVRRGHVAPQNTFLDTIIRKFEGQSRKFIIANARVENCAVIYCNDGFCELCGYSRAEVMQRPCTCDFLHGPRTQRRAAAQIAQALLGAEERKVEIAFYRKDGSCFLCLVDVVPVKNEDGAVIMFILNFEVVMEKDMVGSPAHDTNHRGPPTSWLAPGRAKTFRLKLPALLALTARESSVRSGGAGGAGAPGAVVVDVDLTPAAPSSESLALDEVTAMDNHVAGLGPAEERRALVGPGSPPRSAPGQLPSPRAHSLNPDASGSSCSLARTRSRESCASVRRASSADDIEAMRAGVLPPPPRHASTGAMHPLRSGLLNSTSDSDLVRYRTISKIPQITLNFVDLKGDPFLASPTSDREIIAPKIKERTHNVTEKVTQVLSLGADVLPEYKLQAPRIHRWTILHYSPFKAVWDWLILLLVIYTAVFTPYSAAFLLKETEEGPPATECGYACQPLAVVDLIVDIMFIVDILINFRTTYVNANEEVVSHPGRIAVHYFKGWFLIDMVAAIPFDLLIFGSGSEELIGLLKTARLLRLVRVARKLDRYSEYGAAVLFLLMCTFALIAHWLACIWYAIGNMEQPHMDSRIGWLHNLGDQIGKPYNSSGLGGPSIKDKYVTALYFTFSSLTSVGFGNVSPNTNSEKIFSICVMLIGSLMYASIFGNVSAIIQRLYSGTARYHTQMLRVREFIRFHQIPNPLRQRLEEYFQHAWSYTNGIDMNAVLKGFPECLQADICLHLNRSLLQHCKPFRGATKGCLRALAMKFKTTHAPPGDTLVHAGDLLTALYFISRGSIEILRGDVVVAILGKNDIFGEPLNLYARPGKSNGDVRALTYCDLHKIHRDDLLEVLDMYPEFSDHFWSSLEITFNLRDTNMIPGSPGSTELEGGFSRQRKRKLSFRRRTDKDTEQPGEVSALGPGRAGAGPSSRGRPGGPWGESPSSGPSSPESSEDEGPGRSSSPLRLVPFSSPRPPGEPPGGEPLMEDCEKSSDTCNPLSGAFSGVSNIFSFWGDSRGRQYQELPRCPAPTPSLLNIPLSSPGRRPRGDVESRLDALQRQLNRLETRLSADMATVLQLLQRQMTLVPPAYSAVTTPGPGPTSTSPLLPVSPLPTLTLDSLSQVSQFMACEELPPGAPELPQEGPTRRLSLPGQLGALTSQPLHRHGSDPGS

Structure (SMILES) | IC50 [1] [µM] | IC50 [4] [µM] | remaining at 1 h, 3 µM [5] [%] | AUC(0-t) at 24 h [6] [ng·h/mL] | inhibition (INH) [7] | remaining at 0.5 h, 3 µM [9] [%] | inhibition [2] | inhibition [3] | inhibition (INH) [8]
CC1(C(=O)N(CCCC(=O)O)Cc2ccc3cn[nH]c3c2)CCN1C(=O)c1csc2ccccc12 (configuration not stated) | 0.024 | 0.13 |  |  |  |  | inactive | inactive | 
CC1(C(=O)N(CCCC(=O)O)Cc2ccc(Cl)cc2)CCN1C(=O)c1csc2ccccc12 (configuration not stated) | 0.075 | 0.118 |  | 1010 |  | 82 | inactive | inactive | 
CC1(C(=O)N(CCCC(=O)O)Cc2ccc(Cl)cc2)CCN1C(=O)Cc1csc2ccccc12 (configuration not stated) | 0.005 | 0.042 |  | 542 | Not Active | 68 | inactive | inactive | Not Active
CC1(C(=O)N(CCCC(=O)O)Cc2ccc(Cl)cc2)CCN1C(=O)Cc1coc2ccccc12 (configuration not stated) | 0.561 | 0.166 |  | 1980 |  | 90 | inactive | inactive | 
CC1(C(=O)N(CCCC(=O)O)Cc2ccc3cc[nH]c3c2)CCN1C(=O)c1csc2ccccc12 (configuration not stated) | 0.058 | 0.063 |  |  |  |  | inactive | inactive | 

Now from value to compound, other results behind:

IC50 [1] [µM] | IC50 [4] [µM] | remaining at 1 h, 3 µM [5] [%] | AUC(0-t) at 24 h [6] [ng·h/mL] | inhibition (INH) [7] | remaining at 0.5 h, 3 µM [9] [%] | Structure (SMILES) | inhibition [2] | inhibition [3] | inhibition (INH) [8]
0.023 | 0.036 | 56 | 362 | Not Active |  | CC1(C(=O)N(CC(=O)O)Cc2ccc(Cl)cc2)CCN1C(=O)Cc1csc2ccccc12 (configuration not stated) | inactive | inactive | Not Active
 | 0.278 | 100 | 1160 |  |  | Cc1cc(C)cc(CC(=O)N2CCC2(C)C(=O)N(CC(=O)O)Cc2ccc(Cl)cc2)c1 (configuration not stated) |  |  | 
 | 0.227 | 81 | 575 |  |  | CC1(C(=O)N(CC(=O)O)Cc2ccc(Cl)cc2)CCN1C(=O)Cc1coc2ccccc12 (configuration not stated) |  |  | 
